Key:
Assay in all cases: KINOMEscan competition binding
Details in all cases: compound 10.0 µM
[1] = target: PRKAA1 (human) (UniProt Q13131)
[2] = target: TXK (human) (UniProt P42681)
[3] = target: BTK (human) (UniProt Q06187)
[4] = target: CDK4 CCND1 (human) (UniProt P11802+P24385)
[5] = target: RPS6KA2 KD1 (human) (UniProt Q15349)
[6] = target: CAMK4 (human) (UniProt Q16566)
[7] = target: NEK5 (human) (UniProt Q6P3R8)
[8] = target: MAP4K3 (human) (UniProt Q8IVH8)
[9] = target: ERN1 (human) (UniProt O75460)
[10] = target: MYLK3 (human) (UniProt Q32MK0)
[11] = target: BMPR1A (human) (UniProt P36894)
Sequence of BMPR1A (human) (P36894 whole entry, looked up): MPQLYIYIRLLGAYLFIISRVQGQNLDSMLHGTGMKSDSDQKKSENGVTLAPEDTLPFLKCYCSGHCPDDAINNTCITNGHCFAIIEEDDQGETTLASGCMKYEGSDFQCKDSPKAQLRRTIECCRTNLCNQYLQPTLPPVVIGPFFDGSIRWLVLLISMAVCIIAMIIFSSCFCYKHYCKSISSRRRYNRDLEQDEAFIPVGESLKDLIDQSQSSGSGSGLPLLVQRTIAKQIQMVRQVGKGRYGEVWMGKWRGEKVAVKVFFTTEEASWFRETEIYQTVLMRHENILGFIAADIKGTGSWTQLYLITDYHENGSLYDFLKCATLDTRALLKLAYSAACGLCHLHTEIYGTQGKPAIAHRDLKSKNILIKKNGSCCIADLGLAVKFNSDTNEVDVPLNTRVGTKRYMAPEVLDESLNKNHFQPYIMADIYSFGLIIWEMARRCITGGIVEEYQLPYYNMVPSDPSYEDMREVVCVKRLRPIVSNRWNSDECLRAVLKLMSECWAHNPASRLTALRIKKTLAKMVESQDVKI

[12] = target: MAPK4 (human) (UniProt P31152)
[13] = target: CSNK1G3 (human) (UniProt Q9Y6M4)
Sequence of CSNK1G3 (human) (Q9Y6M4 whole entry, looked up): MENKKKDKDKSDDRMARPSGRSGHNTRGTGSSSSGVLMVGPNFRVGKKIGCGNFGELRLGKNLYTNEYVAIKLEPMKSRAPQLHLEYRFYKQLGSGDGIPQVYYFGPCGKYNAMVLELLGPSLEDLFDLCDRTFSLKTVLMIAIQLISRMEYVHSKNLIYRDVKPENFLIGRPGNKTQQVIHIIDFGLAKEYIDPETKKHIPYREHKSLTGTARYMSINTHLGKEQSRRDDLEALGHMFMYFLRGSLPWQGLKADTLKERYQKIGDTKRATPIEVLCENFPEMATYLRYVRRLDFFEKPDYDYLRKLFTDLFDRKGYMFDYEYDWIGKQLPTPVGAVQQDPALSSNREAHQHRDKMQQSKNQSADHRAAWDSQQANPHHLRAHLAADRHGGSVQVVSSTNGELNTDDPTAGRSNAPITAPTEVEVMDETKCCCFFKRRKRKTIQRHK

[14] = target: WEE1 (human) (UniProt P30291)
[15] = target: OXSR1 (human) (UniProt O95747)
Sequence of OXSR1 (human) (O95747 whole entry, looked up): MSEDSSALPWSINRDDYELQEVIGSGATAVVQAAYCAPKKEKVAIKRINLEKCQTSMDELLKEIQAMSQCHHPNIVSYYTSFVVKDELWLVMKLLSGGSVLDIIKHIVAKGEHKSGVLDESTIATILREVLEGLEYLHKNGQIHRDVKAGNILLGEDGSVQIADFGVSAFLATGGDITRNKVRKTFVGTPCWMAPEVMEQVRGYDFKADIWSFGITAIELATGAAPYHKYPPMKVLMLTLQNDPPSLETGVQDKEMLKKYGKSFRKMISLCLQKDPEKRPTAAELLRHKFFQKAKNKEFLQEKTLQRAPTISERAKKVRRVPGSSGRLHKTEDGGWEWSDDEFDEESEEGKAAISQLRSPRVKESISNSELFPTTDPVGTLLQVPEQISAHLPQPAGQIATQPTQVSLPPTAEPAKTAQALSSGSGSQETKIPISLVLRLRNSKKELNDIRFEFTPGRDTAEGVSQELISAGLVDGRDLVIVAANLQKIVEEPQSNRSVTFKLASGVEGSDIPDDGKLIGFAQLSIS

[16] = target: EIF2AK2 (human) (UniProt P19525)
[17] = target: MYLK4 (human) (UniProt Q86YV6)
[18] = target: EPHB4 (human) (UniProt P54760)
[19] = target: PDGFRA (human) (UniProt P16234)
[20] = target: MAPK15 (human) (UniProt Q8TD08)
[21] = target: RPS6KA2 KD2 (human) (UniProt Q15349)
[22] = target: NEK2 (human) (UniProt P51955)
[23] = target: MYLK2 (human) (UniProt Q9H1R3)
Sequence of MYLK2 (human) (Q9H1R3 whole entry, looked up): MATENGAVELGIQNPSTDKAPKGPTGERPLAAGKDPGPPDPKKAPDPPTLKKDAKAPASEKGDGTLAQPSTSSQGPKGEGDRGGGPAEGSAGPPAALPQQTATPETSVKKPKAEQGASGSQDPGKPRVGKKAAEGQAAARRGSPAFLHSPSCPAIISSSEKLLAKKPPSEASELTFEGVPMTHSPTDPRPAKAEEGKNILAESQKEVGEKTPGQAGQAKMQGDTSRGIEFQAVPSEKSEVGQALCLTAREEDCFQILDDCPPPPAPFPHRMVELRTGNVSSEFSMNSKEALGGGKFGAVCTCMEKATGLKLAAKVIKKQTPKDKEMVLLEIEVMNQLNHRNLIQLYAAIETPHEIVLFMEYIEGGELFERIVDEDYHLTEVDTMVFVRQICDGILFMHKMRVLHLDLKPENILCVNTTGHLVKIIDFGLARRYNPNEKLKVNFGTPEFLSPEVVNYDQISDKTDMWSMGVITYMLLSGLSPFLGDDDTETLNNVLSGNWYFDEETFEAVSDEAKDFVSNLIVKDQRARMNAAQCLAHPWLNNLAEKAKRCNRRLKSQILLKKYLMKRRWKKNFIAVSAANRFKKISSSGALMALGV

[24] = target: FLT3 (human) (UniProt P36888)
[25] = target: PIP4K2B (human) (UniProt P78356)
[26] = target: CDK19 (human) (UniProt Q9BWU1)
Sequence of CDK19 (human) (Q9BWU1 whole entry, looked up): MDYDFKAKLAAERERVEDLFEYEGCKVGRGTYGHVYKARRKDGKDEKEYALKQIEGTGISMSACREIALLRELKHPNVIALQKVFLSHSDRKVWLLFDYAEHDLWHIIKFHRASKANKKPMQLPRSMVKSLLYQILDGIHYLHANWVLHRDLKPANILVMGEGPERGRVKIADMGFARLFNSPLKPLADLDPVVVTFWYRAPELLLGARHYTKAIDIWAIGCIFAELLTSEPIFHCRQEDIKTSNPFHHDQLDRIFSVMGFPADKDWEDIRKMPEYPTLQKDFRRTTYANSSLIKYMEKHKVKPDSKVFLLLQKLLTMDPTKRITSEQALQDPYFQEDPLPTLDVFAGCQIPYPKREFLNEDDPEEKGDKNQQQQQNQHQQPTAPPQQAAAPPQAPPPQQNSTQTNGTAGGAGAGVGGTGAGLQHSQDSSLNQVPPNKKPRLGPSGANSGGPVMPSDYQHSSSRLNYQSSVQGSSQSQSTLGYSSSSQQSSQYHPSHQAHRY

[27] = test system: EGFR (human), P00533 [T790M]
[28] = target: KDR (human) (UniProt P35968)
[29] = target: CaMK1 (human) (UniProt Q14012)
[30] = target: GSK3B (human) (UniProt P49841)
[31] = test system: EGFR (human), P00533 [747-751 del / S ins]
[32] = target: ANKK1 (human) (UniProt Q8NFD2)
[33] = target: HIPK2 (human) (UniProt Q9H2X6)
[34] = target: NIM1 (human) (UniProt Q8IY84)
[35] = target: TGFBR1 (human) (UniProt P36897)
Sequence of TGFBR1 (human) (P36897 whole entry, looked up): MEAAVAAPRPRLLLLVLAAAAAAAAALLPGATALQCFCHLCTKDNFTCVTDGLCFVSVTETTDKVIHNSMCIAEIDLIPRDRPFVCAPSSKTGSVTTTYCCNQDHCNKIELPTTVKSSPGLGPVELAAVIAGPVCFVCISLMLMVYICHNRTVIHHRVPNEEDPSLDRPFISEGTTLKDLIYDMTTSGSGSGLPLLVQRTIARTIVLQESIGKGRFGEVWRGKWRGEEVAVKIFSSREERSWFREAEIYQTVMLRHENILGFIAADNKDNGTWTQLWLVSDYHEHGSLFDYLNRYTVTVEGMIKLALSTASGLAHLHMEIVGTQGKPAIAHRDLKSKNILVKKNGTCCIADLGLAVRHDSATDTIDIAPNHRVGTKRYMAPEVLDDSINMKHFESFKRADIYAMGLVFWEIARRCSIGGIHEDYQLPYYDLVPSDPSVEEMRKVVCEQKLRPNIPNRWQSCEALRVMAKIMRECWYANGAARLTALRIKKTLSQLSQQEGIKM

Sequence of PRKAA1 (human) (Q13131 whole entry, looked up): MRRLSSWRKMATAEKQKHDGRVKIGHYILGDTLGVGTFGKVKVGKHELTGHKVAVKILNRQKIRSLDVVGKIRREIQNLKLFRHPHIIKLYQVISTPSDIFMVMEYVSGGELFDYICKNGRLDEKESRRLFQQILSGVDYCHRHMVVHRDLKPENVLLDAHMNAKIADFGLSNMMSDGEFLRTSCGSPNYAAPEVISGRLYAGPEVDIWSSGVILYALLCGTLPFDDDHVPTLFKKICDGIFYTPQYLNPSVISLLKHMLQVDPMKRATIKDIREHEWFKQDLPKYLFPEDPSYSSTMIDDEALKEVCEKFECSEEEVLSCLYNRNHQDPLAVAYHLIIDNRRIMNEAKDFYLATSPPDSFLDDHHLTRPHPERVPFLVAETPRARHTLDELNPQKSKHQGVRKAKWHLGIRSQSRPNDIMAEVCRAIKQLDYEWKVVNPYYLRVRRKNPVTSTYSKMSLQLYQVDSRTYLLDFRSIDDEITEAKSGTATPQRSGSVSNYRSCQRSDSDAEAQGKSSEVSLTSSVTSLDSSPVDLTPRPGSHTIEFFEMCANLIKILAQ
Sequence of NEK5 (human) (Q6P3R8 whole entry, looked up): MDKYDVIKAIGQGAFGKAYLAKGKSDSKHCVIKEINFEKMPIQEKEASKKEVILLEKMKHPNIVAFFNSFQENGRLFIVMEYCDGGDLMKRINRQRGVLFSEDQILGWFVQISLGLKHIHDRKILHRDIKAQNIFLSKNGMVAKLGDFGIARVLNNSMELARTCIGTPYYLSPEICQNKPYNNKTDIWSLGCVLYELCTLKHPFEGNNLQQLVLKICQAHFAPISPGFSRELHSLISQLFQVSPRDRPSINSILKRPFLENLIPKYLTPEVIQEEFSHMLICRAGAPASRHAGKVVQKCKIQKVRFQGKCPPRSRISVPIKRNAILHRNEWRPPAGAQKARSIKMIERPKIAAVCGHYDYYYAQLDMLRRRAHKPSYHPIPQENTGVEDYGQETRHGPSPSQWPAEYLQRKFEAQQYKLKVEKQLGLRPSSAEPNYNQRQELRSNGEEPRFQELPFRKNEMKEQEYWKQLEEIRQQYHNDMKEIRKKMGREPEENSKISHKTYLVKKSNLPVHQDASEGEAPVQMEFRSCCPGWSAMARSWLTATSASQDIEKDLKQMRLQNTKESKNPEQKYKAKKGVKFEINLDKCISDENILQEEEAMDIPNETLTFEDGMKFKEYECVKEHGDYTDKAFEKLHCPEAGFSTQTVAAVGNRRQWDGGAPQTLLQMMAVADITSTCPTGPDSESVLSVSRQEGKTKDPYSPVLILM
Sequence of CDK4 CCND1 (human) (P11802 whole entry, looked up): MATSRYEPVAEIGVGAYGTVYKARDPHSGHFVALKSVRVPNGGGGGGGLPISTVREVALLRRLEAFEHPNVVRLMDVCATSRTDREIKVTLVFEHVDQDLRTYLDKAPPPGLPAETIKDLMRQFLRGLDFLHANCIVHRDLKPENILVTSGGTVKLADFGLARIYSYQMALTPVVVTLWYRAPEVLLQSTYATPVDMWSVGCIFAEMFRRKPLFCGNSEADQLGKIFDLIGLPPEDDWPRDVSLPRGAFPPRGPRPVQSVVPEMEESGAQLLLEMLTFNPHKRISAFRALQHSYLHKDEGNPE
Sequence of CDK4 CCND1 (human) (P24385 whole entry, looked up): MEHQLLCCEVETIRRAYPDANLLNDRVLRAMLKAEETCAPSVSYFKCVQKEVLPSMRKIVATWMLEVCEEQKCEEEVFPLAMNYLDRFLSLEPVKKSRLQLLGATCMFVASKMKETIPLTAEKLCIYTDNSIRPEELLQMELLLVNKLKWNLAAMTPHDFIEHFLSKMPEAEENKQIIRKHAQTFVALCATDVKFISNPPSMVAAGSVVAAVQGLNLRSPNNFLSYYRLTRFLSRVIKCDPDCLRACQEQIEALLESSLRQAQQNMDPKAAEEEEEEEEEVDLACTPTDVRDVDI

## COc1cc(C(=O)N2CCC(N3CCN(C)CC3)CC2)ccc1Nc1ncc2c(n1)N(C)c1ccccc1C(=O)N2C
[1]
  kinase still bound, per cent of control: 51%
[2]
  kinase still bound, per cent of control: 91%
[3]
  kinase still bound, per cent of control: 100%
[4]
  kinase still bound, per cent of control: 100%
[5]
  kinase still bound, per cent of control: 83%
[6]
  kinase still bound, per cent of control: 79%
[7]
  kinase still bound, per cent of control: 100%
[8]
  kinase still bound, per cent of control: 71%
[9]
  kinase still bound, per cent of control: 59%
[10]
  kinase still bound, per cent of control: 100%
[11]
  kinase still bound, per cent of control: 76%
[12]
  kinase still bound, per cent of control: 100%
[13]
  kinase still bound, per cent of control: 93%
[14]
  kinase still bound, per cent of control: 100%
[15]
  kinase still bound, per cent of control: 88%
[16]
  kinase still bound, per cent of control: 84%
[17]
  kinase still bound, per cent of control: 80%
[18]
  kinase still bound, per cent of control: 100%
[19]
  kinase still bound, per cent of control: 100%
[20]
  kinase still bound, per cent of control: 100%
[21]
  kinase still bound, per cent of control: 7.5%
[22]
  kinase still bound, per cent of control: 100%
[23]
  kinase still bound, per cent of control: 98%
[24]
  kinase still bound, per cent of control: 100%
[25]
  kinase still bound, per cent of control: 100%
[26]
  kinase still bound, per cent of control: 100%
[27]
  kinase still bound, per cent of control: 88%
[28]
  kinase still bound, per cent of control: 84%
[29]
  kinase still bound, per cent of control: 55%
[30]
  kinase still bound, per cent of control: 88%
[31]
  kinase still bound, per cent of control: 100%
[32]
  kinase still bound, per cent of control: 100%
[33]
  kinase still bound, per cent of control: 88%
[34]
  kinase still bound, per cent of control: 100%
[35]
  kinase still bound, per cent of control: 100%

## C[C@@H](Oc1cc(-c2cnn(C3CCNCC3)c2)cnc1N)c1c(Cl)ccc(F)c1Cl
[1]
  kinase still bound, per cent of control: 8%
[2]
  kinase still bound, per cent of control: 5.9%
[4]
  kinase still bound, per cent of control: 51%
[5]
  kinase still bound, per cent of control: 34%
[6]
  kinase still bound, per cent of control: 100%
[7]
  kinase still bound, per cent of control: 63%
[9]
  kinase still bound, per cent of control: 42%
[10]
  kinase still bound, per cent of control: 100%
[11]
  kinase still bound, per cent of control: 0.15%
[12]
  kinase still bound, per cent of control: 84%
[13]
  kinase still bound, per cent of control: 100%
[14]
  kinase still bound, per cent of control: 100%
[16]
  kinase still bound, per cent of control: 43%
[17]
  kinase still bound, per cent of control: 86%
[18]
  kinase still bound, per cent of control: 4.8%
[19]
  kinase still bound, per cent of control: 92%
[20]
  kinase still bound, per cent of control: 80%
[21]
  kinase still bound, per cent of control: 28%
[22]
  kinase still bound, per cent of control: 81%
[23]
  kinase still bound, per cent of control: 73%
[24]
  kinase still bound, per cent of control: 7.8%
[25]
  kinase still bound, per cent of control: 3.8%
[26]
  kinase still bound, per cent of control: 100%
[28]
  kinase still bound, per cent of control: 78%
[29]
  kinase still bound, per cent of control: 37%
[30]
  kinase still bound, per cent of control: 100%
[32]
  kinase still bound, per cent of control: 4.2%
[33]
  kinase still bound, per cent of control: 93%
[34]
  kinase still bound, per cent of control: 12%
[35]
  kinase still bound, per cent of control: 4%

## NC(=O)Nc1cc(-c2cccc(F)c2)sc1C(=O)N[C@@H]1CCCNC1
[1]
  kinase still bound, per cent of control: 0.2%
[2]
  kinase still bound, per cent of control: 0.1%
[3]
  kinase still bound, per cent of control: 0.2%
[4]
  kinase still bound, per cent of control: 75%
[5]
  kinase still bound, per cent of control: 5%
[6]
  kinase still bound, per cent of control: 0.15%
[7]
  kinase still bound, per cent of control: 90%
[8]
  kinase still bound, per cent of control: 0.35%
[9]
  kinase still bound, per cent of control: 25%
[10]
  kinase still bound, per cent of control: 10%
[11]
  kinase still bound, per cent of control: 0.4%
[12]
  kinase still bound, per cent of control: 61%
[13]
  kinase still bound, per cent of control: 4.6%
[14]
  kinase still bound, per cent of control: 50%
[15]
  kinase still bound, per cent of control: 0.45%
[16]
  kinase still bound, per cent of control: 3.4%
[17]
  kinase still bound, per cent of control: 51%
[18]
  kinase still bound, per cent of control: 6.4%
[20]
  kinase still bound, per cent of control: 19%
[21]
  kinase still bound, per cent of control: 1.9%
[22]
  kinase still bound, per cent of control: 75%
[23]
  kinase still bound, per cent of control: 67%
[24]
  kinase still bound, per cent of control: 0%
[25]
  kinase still bound, per cent of control: 0.2%
[26]
  kinase still bound, per cent of control: 100%
[27]
  kinase still bound, per cent of control: 0.05%
[28]
  kinase still bound, per cent of control: 0.05%
[29]
  kinase still bound, per cent of control: 2%
[30]
  kinase still bound, per cent of control: 41%
[31]
  kinase still bound, per cent of control: 2.4%
[32]
  kinase still bound, per cent of control: 1.2%
[33]
  kinase still bound, per cent of control: 13%
[34]
  kinase still bound, per cent of control: 13%
[35]
  kinase still bound, per cent of control: 47%

## CNC(=O)c1cc(Oc2ccc(NC(=O)Nc3ccc(Cl)c(C(F)(F)F)c3)cc2)ccn1
[1]
  kinase still bound, per cent of control: 42%
[2]
  kinase still bound, per cent of control: 77%
[4]
  kinase still bound, per cent of control: 65%
[5]
  kinase still bound, per cent of control: 55%
[6]
  kinase still bound, per cent of control: 100%
[7]
  kinase still bound, per cent of control: 90%
[8]
  kinase still bound, per cent of control: 54%
[9]
  kinase still bound, per cent of control: 74%
[11]
  kinase still bound, per cent of control: 100%
[12]
  kinase still bound, per cent of control: 100%
[13]
  kinase still bound, per cent of control: 91%
[14]
  kinase still bound, per cent of control: 100%
[15]
  kinase still bound, per cent of control: 100%
[16]
  kinase still bound, per cent of control: 73%
[17]
  kinase still bound, per cent of control: 100%
[19]
  kinase still bound, per cent of control: 0%
[20]
  kinase still bound, per cent of control: 0.85%
[21]
  kinase still bound, per cent of control: 81%
[22]
  kinase still bound, per cent of control: 100%
[23]
  kinase still bound, per cent of control: 43%
[24]
  kinase still bound, per cent of control: 0.45%
[25]
  kinase still bound, per cent of control: 94%
[26]
  kinase still bound, per cent of control: 1.4%
[29]
  kinase still bound, per cent of control: 82%
[30]
  kinase still bound, per cent of control: 100%
[32]
  kinase still bound, per cent of control: 100%
[34]
  kinase still bound, per cent of control: 97%
[35]
  kinase still bound, per cent of control: 100%

## COCC(=O)NC/C=C/c1ccc2ncnc(Nc3ccc(Oc4ccc(C)nc4)c(C)c3)c2c1
[1]
  kinase still bound, per cent of control: 89%
[2]
  kinase still bound, per cent of control: 84%
[3]
  kinase still bound, per cent of control: 68%
[4]
  kinase still bound, per cent of control: 100%
[5]
  kinase still bound, per cent of control: 78%
[6]
  kinase still bound, per cent of control: 86%
[7]
  kinase still bound, per cent of control: 100%
[8]
  kinase still bound, per cent of control: 80%
[9]
  kinase still bound, per cent of control: 82%
[10]
  kinase still bound, per cent of control: 100%
[11]
  kinase still bound, per cent of control: 17%
[12]
  kinase still bound, per cent of control: 100%
[13]
  kinase still bound, per cent of control: 100%
[14]
  kinase still bound, per cent of control: 100%
[15]
  kinase still bound, per cent of control: 100%
[16]
  kinase still bound, per cent of control: 99%
[17]
  kinase still bound, per cent of control: 100%
[18]
  kinase still bound, per cent of control: 95%
[19]
  kinase still bound, per cent of control: 56%
[20]
  kinase still bound, per cent of control: 100%
[22]
  kinase still bound, per cent of control: 100%
[23]
  kinase still bound, per cent of control: 100%
[24]
  kinase still bound, per cent of control: 100%
[25]
  kinase still bound, per cent of control: 100%
[26]
  kinase still bound, per cent of control: 0.5%
[28]
  kinase still bound, per cent of control: 100%
[29]
  kinase still bound, per cent of control: 72%
[30]
  kinase still bound, per cent of control: 68%
[32]
  kinase still bound, per cent of control: 60%
[34]
  kinase still bound, per cent of control: 87%
[35]
  kinase still bound, per cent of control: 100%

— the kinase profiling compilation of Christmann-Franck et al. (2016)
